Read-outs that look alike come from different tables or passages of the source.
Assays:
[1] = molecular target: T1, glucosylceramide synthase (Homo sapiens, UniProt Q16739); assay: microsomal assay measuring conversion of ceramide to glucosylceramide by HPLC (GCS IC50); format: biochemical; conditions: concentration causing 50% inhibition of glucosylceramide synthase activity
T1 construct: Microsomes were isolated from A375 human melanoma cells; endogenous in cells; host or cells: A375 human melanoma cells (microsomal fraction, 100,000 g pellet)
T1 sequence (Q16739 1-394): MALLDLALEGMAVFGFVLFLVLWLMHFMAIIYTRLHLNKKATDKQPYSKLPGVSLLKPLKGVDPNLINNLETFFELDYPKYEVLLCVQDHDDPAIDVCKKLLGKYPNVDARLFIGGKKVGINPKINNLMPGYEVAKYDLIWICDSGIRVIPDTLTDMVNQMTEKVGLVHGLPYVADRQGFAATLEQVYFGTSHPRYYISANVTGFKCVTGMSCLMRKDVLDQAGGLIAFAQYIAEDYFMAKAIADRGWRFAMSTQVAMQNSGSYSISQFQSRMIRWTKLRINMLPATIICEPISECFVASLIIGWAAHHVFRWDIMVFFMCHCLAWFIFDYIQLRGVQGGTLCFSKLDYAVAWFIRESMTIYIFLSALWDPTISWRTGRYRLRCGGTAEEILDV
Summary of the method: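 Microsomal preparation assayed for glucosylceramide synthase by direct HPLC measurement of ceramide conversion to glucosylceramide. GCS IC50 is the compound concentration giving 50% inhibition of enzyme activity.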

[2] = test system: GM3 expression on the cell surface, B16 mouse melanoma cells; assay: cell based phenotypic assay, cell surface GM3 by antibody mediated immunofluorescence, B16 (GM3 B16 IC50); conditions: Mus musculus, 50% inhibition of GM3 expression on the cell surface
Summary of the method: (§1)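 B16 mouse and C32 human melanoma cells; cell-surface GM3 measured by antibody-mediated immunofluorescence, giving IC50.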

[3] = test system: GM3 expression on the cell surface, C32 human melanoma cells; assay: cell based phenotypic assay, cell surface GM3 by antibody mediated immunofluorescence, C32 (GM3 C32 IC50); conditions: Homo sapiens, 50% inhibition of GM3 expression on the cell surface
Summary of the method: as §1

B16 mouse melanoma cells = assay: cell viability in the B16 cell-based assay (Viability, B16 IC50)
Summary of the method: (§2)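 Two melanoma lines, mouse B16 and human C32, were treated and surface GM3 quantified by antibody immunofluorescence for IC50. A parallel viability readout gives the concentration killing 50% of cells, with values over 10 indicating no cell death.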

C32 human melanoma cells = assay: cell viability in the C32 cell-based assay (Viability, C32 IC50); conditions: concentration causing 50% cell death, values greater than 10 represent a lack of cell death
Summary of the method: as §2

[4] = B16 mouse melanoma cells, read-out: GM3 B16 IC50
[5] = C32 human melanoma cells, read-out: GM3 C32 IC50
[6] = Mus musculus, B16, B16 cells, concentration causing 50% cell death, values greater than 10 represent a lack of cell death, read-out: Viability, B16 IC50
[7] = Homo sapiens, C32, C32 cells, read-out: Viability, C32 IC50
[8] = read-out: GM3 B16 IC50, B16 mouse melanoma cells
[9] = read-out: GM3 C32 IC50, C32 human melanoma cells
[10] = Mus musculus, B16, read-out: Viability, B16 IC50
[11] = Homo sapiens, C32, read-out: Viability, C32 IC50, C32 cells
[12] = read-out: Viability, B16 IC50, B16 cells, concentration causing 50% cell death, values greater than 10 represent a lack of cell death
[13] = read-out: Viability, C32 IC50, C32 cells

Structure (SMILES)	IC50 [1]	IC50 [2, 4]	IC50 [3, 5]	IC50 (B16 mouse melanoma cells; [6])	IC50 (C32 human melanoma cells; [7])	IC50 [2, 8]	IC50 [3, 9]	IC50 (B16 mouse melanoma cells; [10])	IC50 (C32 human melanoma cells; [11])	IC50 (B16 mouse melanoma cells; [12])	IC50 (C32 human melanoma cells; [13])
CCC1(NC(=O)NC2(c3ccc(-c4ccc(COCCOC)cc4)cc3)CC2)CN2CCC1CC2 (stereo not drawn) [Example 206, 1-(3-Ethylquinuclidin-3-yl)-3-(1-(4′-((2-methoxyethoxy)methyl)-[1,1′-biphenyl]-4-yl)cyclopropyl)urea]	27.8 nM	59.6 nM	2.66 nM	≥ 10000 nM	1780 nM	–	–	–	–	–	–
COCCOCc1ccc(-c2ccc(C3(NC(=O)NC4(C)CCN5CCC4CC5)CC3)cc2)cc1 (stereo not drawn) [Example 207, 1-(1-(4′-((2-Methoxyethoxy)methyl)-[1,1′-biphenyl]-4-yl)cyclopropyl)-3-(4-methyl-1-azabicyclo[3.2.2]nonan-4-yl)urea]	12.3 nM	31.3 nM	1.39 nM	≥ 10000 nM	1780 nM	–	–	–	–	–	–
COCCOCc1ccc(-c2ccc(C3(NC(=O)N[C@]4(C)CN5CCC4CC5)CC3)cc2)cc1 [Example 210, (S)-1-(1-(4′-((2-Methoxyethoxy)methyl)-[1,1′-biphenyl]-4-yl)cyclopropyl)-3-(3-methylquinuclidin-3-yl)urea]	50.2 nM	87 nM	3.34 nM	≥ 10000 nM	≥ 10000 nM	–	–	–	–	–	–
COCCOCc1ccc(-c2ccc(C3(NC(=O)N[C@@]4(C)CN5CCC4CC5)CC3)cc2)cc1 [Example 211, (R)-1-(1-(4′-((2-Methoxyethoxy)methyl)-[1,1′-biphenyl]-4-yl)cyclopropyl)-3-(3-methylquinuclidin-3-yl)urea]	938 nM	683 nM	72 nM	≥ 10000 nM	3160 nM	–	–	–	–	–	–
COCCCc1ccc(-c2ccc(C3(NC(=O)OC4CCN5CCC4CC5)CC3)cc2)cc1 (stereo not drawn) [Example 212, 1-Azabicyclo[3.2.2]nonan-4-yl (1-(4′-(3-methoxypropyl)-[1,1′-biphenyl]-4-yl)cyclopropyl)carbamate]	3.85 nM	47.9 nM	2.53 nM	6360 nM	≥ 10000 nM	–	–	–	–	–	–
COCCCc1ccc(-c2ccc(C3(NC(=O)NC4(C)CCN5CCC4CC5)CC3)cc2)cc1 (stereo not drawn) [Example 213, 1-(1-(4′-(3-Methoxypropyl)-[1,1′-biphenyl]-4-yl)cyclopropyl)-3-(4-methyl-1-azabicyclo[3.2.2]nonan-4-yl)urea]	1.12 nM	5.9 nM	0.35 nM	9220 nM	≥ 10000 nM	–	–	–	–	–	–
COCCCc1ccc(-c2ccc(C3(NC(=O)NC4(C)CN5CCC4CC5)CC3)cc2)cc1 (stereo not drawn) [Example 214, 1-(1-(4′-(3-Methoxypropyl)-[1,1′-biphenyl]-4-yl)cyclopropyl)-3-(3-methylquinuclidin-3-yl)urea]	3.29 nM	32.9 nM	1.26 nM	≥ 10000 nM	≥ 10000 nM	–	–	–	–	–	–
CCC1(NC(=O)NC2(c3ccc(-c4ccc(CCCOC)cc4)cc3)CC2)CN2CCC1CC2 (stereo not drawn) [Example 215, 1-(3-Ethylquinuclidin-3-yl)-3-(1-(4′-(3-methoxypropyl)-[1,1′-biphenyl]-4-yl)cyclopropyl)urea]	2.48 nM	16.2 nM	0.542 nM	7550 nM	≥ 10000 nM	–	–	–	–	–	–
O=C(NC1(c2ccc(-c3ccc(COCc4cccnc4)cc3)cc2)CC1)OC1CN2CCC1CC2 (stereo not drawn) [Example 216, Quinuclidin-3-yl (1-(4′-((pyridin-3-ylmethoxy)methyl)-[1,1′-biphenyl]-4-yl)cyclopropyl)carbamate]	9.33 nM	–	–	–	–	201 nM	11.1 nM	7940 nM	≥ 10000 nM	–	–
CCC1(NC(=O)NC2(c3ccc(-c4ccc(COCc5cccnc5)cc4)cc3)CC2)CN2CCC1CC2 (stereo not drawn) [Example 217, 1-(3-Ethylquinuclidin-3-yl)-3-(1-(4′-((pyridin-3-ylmethoxy)methyl)-[1,1′-biphenyl]-4-yl)cyclopropyl)urea]	13.3 nM	168 nM	4.02 nM	≥ 10000 nM	≥ 10000 nM	–	–	–	–	–	–
CCCC1(NC(=O)NC2(c3ccc(-c4ccc(COCc5cccnc5)cc4)cc3)CC2)CN2CCC1CC2 (stereo not drawn) [Example 218, 1-(3-Propylquinuclidin-3-yl)-3-(1-(4′-((pyridin-3-ylmethoxy)methyl)-[1,1′-biphenyl]-4-yl)cyclopropyl)urea]	11 nM	80.9 nM	2.97 nM	7950 nM	≥ 10000 nM	–	–	–	–	–	–
O=C(NC1(c2ccc(-c3ccc(COCc4cncnc4)cc3)cc2)CC1)OC1CN2CCC1CC2 (stereo not drawn) [Example 219, Quinuclidin-3-yl (1-(4′-((pyrimidin-5-ylmethoxy)methyl)-[1,1′-biphenyl]-4-yl)cyclopropyl)carbamate]	46.6 nM	–	–	–	–	118 nM	20.9 nM	≥ 10000 nM	≥ 10000 nM	–	–
CCC1(NC(=O)NC2(c3ccc(-c4ccc(COCc5cncnc5)cc4)cc3)CC2)CN2CCC1CC2 (stereo not drawn) [Example 220, 1-(3-Ethylquinuclidin-3-yl)-3-(1-(4′-((pyrimidin-5-ylmethoxy)methyl)-[1,1′-biphenyl]-4-yl)cyclopropyl)urea]	51.6 nM	114 nM	6.06 nM	≥ 10000 nM	3160 nM	–	–	–	–	–	–
O=C(NC1(c2ccc(-c3ccc(COCc4cncnc4)cc3)cc2)CC1)OC1CCN2CCC1CC2 (stereo not drawn) [Example 221, 1-Azabicyclo[3.2.2]nonan-4-yl (1-(4′-((pyrimidin-5-ylmethoxy)methyl)-[1,1′-biphenyl]-4-yl)cyclopropyl)carbamate]	52.1 nM	99.2 nM	21.1 nM	≥ 10000 nM	≥ 10000 nM	–	–	–	–	–	–
COCCCc1ccc(-c2ccc(C(C)(C)NC(=O)NC3(C)CN4CCC3CC4)cc2)cc1 (stereo not drawn) [Example 222, 1-(2-(4′-(3-Methoxypropyl)-[1,1′-biphenyl]-4-yl)propan-2-yl)-3-(3-methylquinuclidin-3-yl)urea]	1.7 nM	30.7 nM	0.758 nM	≥ 10000 nM	≥ 10000 nM	–	–	–	–	–	–
CC(C)(NC(=O)OC1CN2CCC1CC2)c1ccc(-c2ccc(CO)cc2)cc1 (stereo not drawn) [Example 223, Quinuclidin-3-yl (2-(4′-(hydroxymethyl)-[1,1′-biphenyl]-4-yl)propan-2-yl)carbamate]	454 nM	–	–	–	–	881 nM	21.6 nM	–	–	≥ 10000 nM	≥ 10000 nM
CCCC1(NC(=O)NC(C)(C)c2ccc(-c3ccc(CCO)cc3)cc2)CN2CCC1CC2 (stereo not drawn) [Example 224, 1-(2-(4′-(2-Hydroxyethyl)-[1,1′-biphenyl]-4-yl)propan-2-yl)-3-(3-propylquinuclidin-3-yl)urea]	20.2 nM	64.3 nM	1.6 nM	≥ 10000 nM	≥ 10000 nM	–	–	–	–	–	–
CCC1(NC(=O)NC(C)(C)c2ccc(-c3ccc(CCO)cc3)cc2)CN2CCC1CC2 (stereo not drawn) [Example 225, 1-(3-Ethylquinuclidin-3-yl)-3-(2-(4′-(2-hydroxyethyl)-[1,1′-biphenyl]-4-yl)propan-2-yl)urea]	29.4 nM	229 nM	1.92 nM	≥ 10000 nM	≥ 10000 nM	–	–	–	–	–	–
CC(C)(NC(=O)OC1CN2CCC1CC2)c1ccc(-c2ccc(CCO)cc2)cc1 (stereo not drawn) [Example 226, Quinuclidin-3-yl (2-(4′-(2-hydroxyethyl)-[1,1′-biphenyl]-4-yl)propan-2-yl)carbamate]	148 nM	–	–	–	–	656 nM	22.3 nM	–	–	≥ 10000 nM	≥ 10000 nM
CC(C)(NC(=O)OC1CN2CCC1CC2)c1ccc(-c2ccc(CCc3c[nH]nn3)cc2)cc1 (stereo not drawn) [Example 227, Quinuclidin-3-yl (2-(4′-(2-(1H-1,2,3-triazol-4-yl)ethyl)-[1,1′-biphenyl]-4-yl)propan-2-yl)carbamate]	27 nM	–	–	–	–	122 nM	10.4 nM	≥ 10000 nM	1000 nM	–	–
CC(C)(NC(=O)OC1CCN2CCC1CC2)c1ccc(-c2ccc(CCc3c[nH]nn3)cc2)cc1 (stereo not drawn) [Example 228, 1-Azabicyclo[3.2.2]nonan-4-yl (2-(4′-(2-(1H-1,2,3-triazol-4-yl)ethyl)-[1,1′-biphenyl]-4-yl)propan-2-yl)carbamate]	18.2 nM	80.8 nM	6.08 nM	7650 nM	3160 nM	–	–	–	–	–	–
